In PubChem BioAssay AID330 (DTP/NCI, 2004):
Values joined by “and” are separate entries in the source; they are usually repeats but may differ in a detail not shown here. Equal entries are not always repeated. Toxic doses and inconclusive results are not listed.

Test system: P388 leukemia ip, CD2F1 mice, survival T/C
Test: NCI In Vivo Anticancer Drug Screen. Data for tumor model P388 Leukemia (intraperitoneal) in CD2F1 (CDF1) mice
Details: endpoint: median survival time, higher = longer survival
In short: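 Mice carrying the transplanted tumor received test compound or vehicle. Survival was recorded in each group, and the value is the treated-group measurement divided by that of the vehicle-treated control group.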

[1] = dose: 100.0 mg/kg/injection, schedule: Q01DX009 (ip), vehicle: saline with Tween-80
[2] = dose: 200.0 mg/kg/injection, schedule: Q01DX009 (ip), vehicle: saline with Tween-80
[3] = dose: 400.0 mg/kg/injection, schedule: Q01DX009 (ip), vehicle: saline with Tween-80
[4] = dose: 50.0 mg/kg/injection, schedule: Q01DX009 (ip), vehicle: saline
[5] = dose: 100.0 mg/kg/injection, schedule: Q01DX009 (ip), vehicle: saline
[6] = dose: 6.25 mg/kg/injection, schedule: Q01DX009 (ip), vehicle: saline with Tween-80
[7] = dose: 12.5 mg/kg/injection, schedule: Q01DX009 (ip), vehicle: saline with Tween-80
[8] = dose: 100.0 mg/kg/injection, schedule: Q04DX002 (ip), vehicle: Klucel (hydroxypropylcellulose) (HPC)
[9] = dose: 200.0 mg/kg/injection, schedule: Q04DX002 (ip), vehicle: Klucel (hydroxypropylcellulose) (HPC)
[10] = dose: 400.0 mg/kg/injection, schedule: Q04DX002 (ip), vehicle: Klucel (hydroxypropylcellulose) (HPC)
[11] = dose: 200.0 mg/kg/injection, schedule: Q01DX009 (ip), vehicle: saline
[12] = dose: 12.5 mg/kg/injection, schedule: Q01DX009 (ip), vehicle: Klucel (hydroxypropylcellulose) (HPC)
[13] = dose: 25.0 mg/kg/injection, schedule: Q01DX009 (ip), vehicle: Klucel (hydroxypropylcellulose) (HPC)
[14] = dose: 6.25 mg/kg/injection, schedule: Q01DX005 (ip), vehicle: Klucel (hydroxypropylcellulose) (HPC)
[15] = dose: 12.5 mg/kg/injection, schedule: Q01DX005 (ip), vehicle: Klucel (hydroxypropylcellulose) (HPC)
[16] = dose: 50.0 mg/kg/injection, schedule: Q01DX009 (ip), vehicle: Klucel (hydroxypropylcellulose) (HPC)
[17] = dose: 50.0 mg/kg/injection, schedule: Q01DX009 (ip), vehicle: saline with Tween-80
[18] = dose: 1.56 mg/kg/injection, schedule: Q01DX009 (ip), vehicle: other

## CN(C)C(=O)C(=O)C1C=Cc2ccccc21 (configuration not stated)
[1]
  T/C: 100 % of control
[2]
  T/C: 90 % of control
[3]
  T/C: 95 % of control

## NC(CCCCNC1CCCCC1)C(=O)O (configuration not stated)
[1]
  T/C: 106 % of control
[2]
  T/C: 105 % of control
[3]
  T/C: 100 % of control

## COc1cc(C)c(C(=O)Oc2cc(C)c(C(=O)O)c(O)c2)c(O)c1
[4]
  T/C: 90 % of control
[5]
  T/C: 95 % of control

## CCC(=O)NCC(=O)O
dose: 3.13 mg/kg/injection, schedule: Q01DX009 (ip), vehicle: saline with Tween-80
  T/C: 100 % of control
[6]
  T/C: 104 % of control and 86 % of control
dose: 6.25 mg/kg/injection, schedule: Q04DX003 (ip), vehicle: saline with Tween-80
  T/C: 110 % of control
[7]
  T/C: 109 % of control
dose: 12.5 mg/kg/injection, schedule: Q04DX003 (ip), vehicle: saline with Tween-80
  T/C: 100 % of control
dose: 25.0 mg/kg/injection, schedule: Q04DX003 (ip), vehicle: saline with Tween-80
  T/C: 100 % of control

## COc1ccc(C(CN2CCOCC2)C(C)=O)cc1OC (configuration not stated)
dose: 60.0 mg/kg/injection, schedule: Q01DX005 (ip), vehicle: saline
  T/C: 101 % of control
dose: 120.0 mg/kg/injection, schedule: Q01DX005 (ip), vehicle: saline
  T/C: 101 % of control
dose: 240.0 mg/kg/injection, schedule: Q01DX005 (ip), vehicle: saline
  T/C: 101 % of control

## COc1cc(/C=C/c2ccc(N(C)C)cc2)oc(=O)c1
[8]
  T/C: 101 % of control
[9]
  T/C: 98 % of control
[10]
  T/C: 99 % of control

## CCOC(=O)C1CC(=O)SC1=O (configuration not stated)
dose: 25.0 mg/kg/injection, schedule: Q04DX002 (ip), vehicle: saline with Tween-80
  T/C: 101 % of control
dose: 50.0 mg/kg/injection, schedule: Q04DX002 (ip), vehicle: saline with Tween-80
  T/C: 100 % of control
dose: 100.0 mg/kg/injection, schedule: Q04DX002 (ip), vehicle: saline with Tween-80
  T/C: 99 % of control

## CCCCCSSSCCCCC
[4]
  T/C: 101 % of control
[5]
  T/C: 96 % of control
[11]
  T/C: 104 % of control

## O=c1cnn(C2OC(CO)C(O)C2O)c(=O)[nH]1 (configuration not stated)
[12]
  T/C: 118 % of control and 120 % of control
[13]
  T/C: 109 % of control and 110 % of control

## O=Cc1cc(/C=N/Nc2ccccc2C(=O)O)nc2[nH]c(=O)ccc12
[8]
  T/C: 107 % of control
[9]
  T/C: 102 % of control
[10]
  T/C: 101 % of control

## O=C(NC(Cc1c[nH]c2ccccc12)C(=O)O)c1ccccc1[N+](=O)[O-] (configuration not stated)
[14]
  T/C: 93 % of control
[15]
  T/C: 108 % of control
dose: 25.0 mg/kg/injection, schedule: Q01DX005 (ip), vehicle: Klucel (hydroxypropylcellulose) (HPC)
  T/C: 97 % of control

## CCCCC(O)/C=C(C)/C=C/C=C/C(=O)N1CCCC1=O (configuration not stated)
[13]
  T/C: 113 % of control
[16]
  T/C: 113 % of control
dose: 100.0 mg/kg/injection, schedule: Q01DX009 (ip), vehicle: Klucel (hydroxypropylcellulose) (HPC)
  T/C: 110 % of control
dose: 200.0 mg/kg/injection, schedule: Q01DX009 (ip), vehicle: Klucel (hydroxypropylcellulose) (HPC)
  T/C: 110 % of control
dose: 400.0 mg/kg/injection, schedule: Q01DX009 (ip), vehicle: Klucel (hydroxypropylcellulose) (HPC)
  T/C: 118 % of control

## OCC1OC(n2ccc3c(NO)ncnc32)C(O)C1O (configuration not stated)
dose: 0.46 mg/kg/injection, schedule: Q01DX005 (ip), vehicle: Klucel (hydroxypropylcellulose) (HPC)
  T/C: 112 % of control

## COc1c(Cl)c2c(c(OC)c1OC)-c1ccc(OC)c(=O)cc1C(NC(C)=O)CC2 (configuration not stated)
dose: 0.78 mg/kg/injection, schedule: Q01DX009 (ip), vehicle: Klucel (hydroxypropylcellulose) (HPC)
  T/C: 151 % of control
dose: 1.56 mg/kg/injection, schedule: Q01DX009 (ip), vehicle: Klucel (hydroxypropylcellulose) (HPC)
  T/C: 179 % of control and 188 % of control
dose: 3.12 mg/kg/injection, schedule: Q01DX009 (ip), vehicle: Klucel (hydroxypropylcellulose) (HPC)
  T/C: 199 % of control

## CC1(C)OC1(C)C
[17]
  T/C: 100 % of control
[1]
  T/C: 104 % of control
[2]
  T/C: 102 % of control
[3]
  T/C: 111 % of control

## C[N+](C)(C)CC(O)c1ccc(O)c(O)c1 (configuration not stated)
dose: 6.25 mg/kg/injection, schedule: Q01DX009 (ip), vehicle: saline
  T/C: 113 % of control
dose: 12.5 mg/kg/injection, schedule: Q01DX009 (ip), vehicle: saline
  T/C: 100 % of control
dose: 25.0 mg/kg/injection, schedule: Q01DX009 (ip), vehicle: saline
  T/C: 97 % of control
[4]
  T/C: 100 % of control

## CCC1(O)CC(OC2CC(O)C(O)CO2)c2c(O)c3c(c(O)c2C1C(=O)OC)C(=O)c1cccc(O)c1C3=O (configuration not stated)
[18]
  T/C: 90 % of control
dose: 3.13 mg/kg/injection, schedule: Q01DX009 (ip), vehicle: other
  T/C: 88 % of control
dose: 6.25 mg/kg/injection, schedule: Q01DX009 (ip), vehicle: other
  T/C: 101 % of control
dose: 12.5 mg/kg/injection, schedule: Q01DX009 (ip), vehicle: other
  T/C: 115 % of control
dose: 25.0 mg/kg/injection, schedule: Q01DX009 (ip), vehicle: other
  T/C: 92 % of control

## ClC(Cl)(Cl)C(Cl)(Cl)c1ccc(C(Cl)(Cl)C(Cl)(Cl)Cl)cc1
dose: 132.0 mg/kg/injection, schedule: Q04DX003 (ip), vehicle: saline with Tween-80
  T/C: 100 % of control
dose: 200.0 mg/kg/injection, schedule: Q04DX003 (ip), vehicle: saline with Tween-80
  T/C: 100 % of control
dose: 300.0 mg/kg/injection, schedule: Q04DX003 (ip), vehicle: saline with Tween-80
  T/C: 100 % of control

## CC(c1ccc2c(c1)CCC1C2C2OC2C2(O)CC=CC(=O)C12C)C1CC2(C)OC2(C)C(O)O1 (configuration not stated)
dose: 3.0 mg/kg/injection, schedule: Q01DX009 (ip), vehicle: saline with Tween-80
  T/C: 113 % of control
dose: 6.0 mg/kg/injection, schedule: Q01DX009 (ip), vehicle: saline with Tween-80
  T/C: 100 % of control
dose: 12.0 mg/kg/injection, schedule: Q01DX009 (ip), vehicle: saline with Tween-80
  T/C: 109 % of control
dose: 24.0 mg/kg/injection, schedule: Q01DX009 (ip), vehicle: saline with Tween-80
  T/C: 107 % of control
dose: 48.0 mg/kg/injection, schedule: Q01DX009 (ip), vehicle: saline with Tween-80
  T/C: 102 % of control

## Cn1c(C(=O)c2cc3ccccc3n2C)cc2ccccc21
[4]
  T/C: 100 % of control
[5]
  T/C: 97 % of control
[11]
  T/C: 103 % of control

## OCC1OC2C(NC(=S)N2c2ccccc2)C(O)C1O (configuration not stated)
dose: 60.0 mg/kg/injection, schedule: Q01DX005 (ip), vehicle: saline with Tween-80
  T/C: 101 % of control
dose: 120.0 mg/kg/injection, schedule: Q01DX005 (ip), vehicle: saline with Tween-80
  T/C: 98 % of control
dose: 240.0 mg/kg/injection, schedule: Q01DX005 (ip), vehicle: saline with Tween-80
  T/C: 104 % of control

## O=C1NC(=O)C2(CCCc3c([N+](=O)[O-])cccc32)N1 (configuration not stated)
[17]
  T/C: 97 % of control
[1]
  T/C: 93 % of control
[2]
  T/C: 90 % of control

## O=C1c2ccccc2-c2c3c(cc4ccnc1c24)OCO3
dose: 3.12 mg/kg/injection, schedule: Q01DX009 (ip), vehicle: saline with Tween-80
  T/C: 115 % of control
dose: 6.25 mg/kg/injection, schedule: Q01DX009 (ip), vehicle: Klucel (hydroxypropylcellulose) (HPC)
  T/C: 101 % of control
[6]
  T/C: 105 % of control
[12]
  T/C: 97 % of control
[7]
  T/C: 89 % of control
[13]
  T/C: 99 % of control
[16]
  T/C: 100 % of control
[17]
  T/C: 99 % of control
[1]
  T/C: 99 % of control

## C[n+]1c(-c2cccc(-c3ccccc3)c2)c2cc(N)ccc2c2ccccc21
[18]
  T/C: 124 % of control

## C=C(Cl)C(=NC1CCCCC1)NC(C)(C)C
dose: 0.79 mg/kg/injection, schedule: Q01DX005 (ip), vehicle: Klucel (hydroxypropylcellulose) (HPC)
  T/C: 97 % of control
dose: 1.56 mg/kg/injection, schedule: Q01DX005 (ip), vehicle: Klucel (hydroxypropylcellulose) (HPC)
  T/C: 101 % of control and 107 % of control
dose: 3.12 mg/kg/injection, schedule: Q01DX005 (ip), vehicle: Klucel (hydroxypropylcellulose) (HPC)
  T/C: 104 % of control and 107 % of control and 109 % of control
[14]
  T/C: 116 % of control
[15]
  T/C: 110 % of control

## O=c1sc2ccccc2n1CCCl
dose: 25.0 mg/kg/injection, schedule: Q01DX009 (ip), vehicle: saline with Tween-80
  T/C: 112 % of control
[17]
  T/C: 110 % of control
[1]
  T/C: 114 % of control
[2]
  T/C: 103 % of control
